# Several values for one entry are separate records, joined by “and”; a condition that tells them apart may be missing. Identical values can stand only once.
# Test system: children with PFIC1 or PFIC2
# Assay: PEDFIC 1 phase 3 randomized, double-blind, placebo-controlled trial: efficacy (pruritus, serum bile acids, hepatic parameters, growth, sleep)
# Format: in vivo, human
# Details: for Proportion of Positive Pruritus Assessments Over the Treatment Period, Mean (SE) / Proportion of Positive Pruritus Assessments, Mean Difference vs Placebo (least squares means): 24 weeks; for least squares mean treatment difference vs placebo in proportion of positive pruritus assessments / least square mean proportion of positive pruritus assessments at the patient level: over 24 weeks; for least square mean proportion of positive pruritus assessments at the patient level: ObsRO
# Description: Odevixibat is an orally administered, potent, luminally restricted, selective IBAT inhibitor in development to treat cholestatic liver diseases. In this phase 3, randomized, 24-week trial (PEDFIC 1), the efficacy and safety of odevixibat versus placebo was evaluated in children with PFIC1 or PFIC2. The efficacy of odevixibat in patients with PFIC was evaluated a 24-week, randomized, double-blind, placebo-controlled trial conducted in 62 patients with a confirmed diagnosis of PFIC Type 1 or Type 2 (NCT03566238; European Union (EU), 2017-002338-21; PEDFIC1; FIG. 1). Patients were randomized 1:1:1 to placebo, or 40 or 120 μg/kg odevixibat and stratified by PFIC Type (1 or 2) and age (6 months to 5 years, 6 to 12 years, and 13 to ≤18 years). Patients with pathologic variations of the ABCB11 gene that predict complete absence of the bile salt export pump (BSEP) protein and those with alanine aminotransferase (ALT)>10×ULN or bilirubin>5×ULN were excluded from the study.
# The study consisted of a screening phase and parallel-design treatment period (FIG. 1). Two screening visits occurred: the first took place during days −56 to −35 prior to the first dose of study drug and the second occurred during days −28 to −7. On day 0, all eligible patients were randomized 1:1:1 to oral, once-daily placebo, 40 μg/kg/day odevixibat, or 120 μg/kg/day odevixibat. After written informed consent was obtained, an 8-digit patient identification number was assigned by the Interactive Web Response System (IWRS). The first two digits denoted country, followed by a 3-digit site number, and a 3-digit patient sequence number. The randomization codes were computer generated by a biostatistician at ICON Clinical Research Ltd (Dublin, Ireland) and kept by an unblinded statistician at Firma Clinical Research (Chicago, IL, USA), independent from the project team. Patients deemed eligible for randomization were assigned a unique 4 digit randomization number by the IWRS that identified which treatment was allocated to the patient. Randomization was done in a block size of six and stratified according to PFIC type 1 or 2 and age group (6 months to 5 years, 6 to 12 years, and 13 to ≤18 years) to ensure approximate balance between dose schemes (1:1:1). A separate randomization list was prepared for the patients who had taken part in study A4250-003, regardless of stratification. Randomization codes were assigned sequentially as patients became eligible for randomization. The IWRS system assigned a study drug number(s) corresponding to the randomization arm at each dispensing visit. A 5-digit study drug number identified study drug packs and was detailed on the study drug label.
# Treatment was dispensed during on-site clinic visits, and patients or caregivers were instructed to take or administer the study drug at home each morning, either as an intact capsule(s) (swallowed with a glass of water and with food) or sprinkled on soft, room-temperature food (e.g., applesauce, followed by water). The double-blind PEDFIC 1 treatment period lasted 24 weeks.
# Children (aged 0.5 to 18 years) with genetic confirmation of biallelic pathogenic mutations in the ATP8B1 (i.e., PFIC1) or ABCB11 genes (i.e., PFIC2), elevated serum bile acids (≥100 μmol/L), history of significant pruritus, and an average caregiver-reported observed scratching score ≥2 (calculated from daily electronic diary [eDiary] entries) in the 14 days prior to randomization, were eligible for inclusion. Additionally, caregivers or age-appropriate patients (≥8 years of age) agreed to use the eDiary device to record symptoms. Patients with two mutations in ABCB11 predicting a complete absence of functional bile salt export pump protein were excluded.
# Two different primary endpoints were evaluated. The first primary endpoint in this study was the proportion of positive pruritus assessments at the patient level over the 24-week treatment period based on an observer-reported outcome (ObsRO) instrument. […]
structure (smiles),measurement,setting,value
"CCCCC1(CCCC)CN(c2ccccc2)c2cc(SC)c(OCC(=O)N[C@@H](C(=O)N[C@@H](CC)C(=O)O)c3ccc(O)cc3)cc2S(=O)(=O)N1 [Odevixibat, 1,1-dioxo-3,3-dibutyl-5-phenyl-7-methylthio-8-(N-{(R)-α-[N-((S)-1-carboxypropyl)carbamoyl]-4-hydroxybenzyl}carbamoylmethoxy)-2,3,4,5-tetrahydro-1,2,5-benzothiadiazepine]","Patients with Reduction in Serum Bile Acids, % Difference vs Placebo","PEDFIC 1, 40 μg/kg/day",44.1%
same,mean percentage difference vs placebo in patients who met the serum bile acid reduction endpoint,"PEDFIC 1, 40 μg/kg/day",44.1%
same,"Proportion of Positive Pruritus Assessments Over the Treatment Period, Mean (SE)","PEDFIC 1, 40 μg/kg/day (n = 23)",58.31 (6.205)
same,"Proportion of Positive Pruritus Assessments, Mean Difference vs Placebo (least squares means)","PEDFIC 1, 40 μg/kg/day",28.23 (9.182)
same,"Autotaxin, change from baseline to week 24, mean","PEDFIC 1, 40 μg/kg/day, n 14",-1698 ng/mL
same,"APRI, change from baseline to week 24, mean","PEDFIC 1, 40 μg/kg/day, n 15",−0.1
same,"C4 (7alpha-hydroxy-4-cholesten-3-one), change from baseline to week 24, mean","PEDFIC 1, 40 μg/kg/day, n 15",15.7 ng/mL
same,"FIB-4, change from baseline to week 24, mean","PEDFIC 1, 40 μg/kg/day, n 15",0.0
same,"PELD/MELD, change from baseline to week 24, mean","PEDFIC 1, 40 μg/kg/day, n 15",−2.4
same,"GGT, change from baseline to week 24, mean (SE)","PEDFIC 1, 40 μg/kg/day, n 17",−3 (2) U/L
same,"Serum AST, change from baseline to week 24, mean","PEDFIC 1, 40 μg/kg/day, n 17",−37 U/L
same,"Total bilirubin, change from baseline to week 24, mean","PEDFIC 1, 40 μg/kg/day, n 17",-1.4 mg/dL
same,Proportion of Patients with Reduction in Serum Bile Acids at End of Treatment,"PEDFIC 1, 40 μg/kg/day, n = 23",10 (43.5) n (%)
same,least squares mean treatment difference vs placebo in proportion of positive pruritus assessments,"PEDFIC 1, 40 μg/kg/day",28.2%
same,least square mean proportion of positive pruritus assessments at the patient level,"PEDFIC 1, 40 μg/kg/day",58%
same,proportion of patients achieving a serum bile acid response (≥70% reduction or ≤70 μmol/L),"PEDFIC 1, 40 μg/kg/day, week 24",44%
same,mean (SE) change from baseline to end of treatment in height z-score,"PEDFIC 1, 40 μg/kg/day, placebo 0.10 (0.102)",0.29 (0.106)
same,mean (SE) change from baseline to end of treatment in ALT,"PEDFIC 1, 40 μg/kg/day, placebo 3.7 (4.95)",−27.9 (17.97) U/L
same,mean change from baseline to end of treatment in percentage of days sleeping with the caregiver,"PEDFIC 1, 40 μg/kg/day, placebo −5.5%",−49.4%
same,mean change from baseline to end of treatment in percentage of days requiring soothing,"PEDFIC 1, 40 μg/kg/day, placebo −7.6%",−51.5%
same,"Patients with Reduction in Serum Bile Acids, % Difference vs Placebo","PEDFIC 1, 120 μg/kg/day",21.6%
same,mean (SE) change from baseline to end of treatment in ALT,"PEDFIC 1, 120 μg/kg/day",−25.3 (22.47) U/L
same,mean (SE) change from baseline to end of treatment in height z-score,"PEDFIC 1, 120 μg/kg/day",0.15 (0.124)
same,mean change from baseline to end of treatment in percentage of days requiring soothing,"PEDFIC 1, 120 μg/kg/day",−34.9%
same,mean change from baseline to end of treatment in percentage of days sleeping with the caregiver,"PEDFIC 1, 120 μg/kg/day",−33.1%
same,mean percentage difference vs placebo in patients who met the serum bile acid reduction endpoint,"PEDFIC 1, 120 μg/kg/day",21.6%
same,"Proportion of Positive Pruritus Assessments Over the Treatment Period, Mean (SE)","PEDFIC 1, 120 μg/kg/day (n = 19)",47.69 (8.110)
same,"Proportion of Positive Pruritus Assessments, Mean Difference vs Placebo (least squares means)","PEDFIC 1, 120 μg/kg/day",21.71 (9.892)
same,"APRI, change from baseline to week 24, mean","PEDFIC 1, 120 μg/kg/day, n 8",0.0
same,"FIB-4, change from baseline to week 24, mean","PEDFIC 1, 120 μg/kg/day, n 8",0.1
same,"Autotaxin, change from baseline to week 24, mean","PEDFIC 1, 120 μg/kg/day, n 12",-1018 ng/mL
same,"C4 (7alpha-hydroxy-4-cholesten-3-one), change from baseline to week 24, mean","PEDFIC 1, 120 μg/kg/day, n 12",15.8 ng/mL
same,"PELD/MELD, change from baseline to week 24, mean","PEDFIC 1, 120 μg/kg/day, n 14",−1.1
same,"GGT, change from baseline to week 24, mean (SE)","PEDFIC 1, 120 μg/kg/day, n 15",−1 (1) U/L
same,"Serum AST, change from baseline to week 24, mean","PEDFIC 1, 120 μg/kg/day, n 15",−27 U/L
same,"Total bilirubin, change from baseline to week 24, mean","PEDFIC 1, 120 μg/kg/day, n 15",-1.1 mg/dL
same,Proportion of Patients with Reduction in Serum Bile Acids at End of Treatment,"PEDFIC 1, 120 μg/kg/day, n = 19",4 (21.1) n (%)
same,least squares mean treatment difference vs placebo in proportion of positive pruritus assessments,"PEDFIC 1, 120 μg/kg/day",21.7%
same,least square mean proportion of positive pruritus assessments at the patient level,"PEDFIC 1, 120 μg/kg/day",52%
same,proportion of patients achieving a serum bile acid response (≥70% reduction or ≤70 μmol/L),"PEDFIC 1, 120 μg/kg/day, week 24",21%
same,"percentage of days seeing blood due to scratching, number of awakenings, percentage of days taking medications to induce sleep: odevixibat vs placebo","PEDFIC 1, 24 weeks",no clear differences
same,reduction of autotaxin levels,"PEDFIC 1, 24 weeks of treatment",approximately half
same,"Patients with Reduction in Serum Bile Acids, % Difference vs Placebo","PEDFIC 1, Total odevixibat",30.7%
same,"Proportion of Positive Pruritus Assessments Over the Treatment Period, Mean (SE)","PEDFIC 1, Total odevixibat (N = 42), placebo 28.74 (5.209)",53.51 (5.006)
same,Proportion of Patients with Reduction in Serum Bile Acids at End of Treatment,"PEDFIC 1, Total odevixibat (N = 42), placebo 0",14 (33.3) n (%)
same,"Proportion of Positive Pruritus Assessments, Mean Difference vs Placebo (least squares means)","PEDFIC 1, Total odevixibat",24.97 (8.240)
same,patients undergoing surgical interruption of the enterohepatic circulation or liver transplantation,"PEDFIC 1, all 62 patients, during the study",None
same,mean (SE) change from baseline in ObsRO pruritus score (mean monthly),"PEDFIC 1, all doses, baseline to weeks 21 through 24, placebo −0.25 (0.2)",−1.11 (0.2)
same,"APRI, change from baseline to week 24, mean","PEDFIC 1, all doses, n 23",−0.1
same,"FIB-4, change from baseline to week 24, mean","PEDFIC 1, all doses, n 23",0.0
same,"Autotaxin, change from baseline to week 24, mean","PEDFIC 1, all doses, n 26",-1384 ng/mL
same,"C4 (7alpha-hydroxy-4-cholesten-3-one), change from baseline to week 24, mean","PEDFIC 1, all doses, n 27",15.7 ng/mL
same,"PELD/MELD, change from baseline to week 24, mean","PEDFIC 1, all doses, n 29",−1.8
same,"GGT, change from baseline to week 24, mean (SE)","PEDFIC 1, all doses, n 32",−2 (1) U/L
same,"Serum AST, change from baseline to week 24, mean","PEDFIC 1, all doses, n 32",−32 U/L
same,"Total bilirubin, change from baseline to week 24, mean","PEDFIC 1, all doses, n 32",-1.3 mg/dL
same,least square mean proportion of positive pruritus assessments at the patient level,"PEDFIC 1, all doses, placebo 30%",55% and 55.1%
same,proportion of patients achieving a serum bile acid response (≥70% reduction or ≤70 μmol/L),"PEDFIC 1, all doses, week 24, placebo 0",33% and 33.3%
same,mean (SE) change in serum ALT,"PEDFIC 1, all doses, week 24, placebo 3.7 (5.0)",−26.7 (14.0) U/L
same,"proportion of patients with clinically meaningful change in pruritus (≥1-point decrease, mean monthly score)","PEDFIC 1, all doses, week 24, placebo 11%",43%
same,mean change in serum bile acid levels,"PEDFIC 1, all doses, weeks 22 through 24 / end of treatment, placebo +13.1",-114.3 µmol/L
same,mean pruritus score change from baseline to end of treatment,"PEDFIC 1, all doses, placebo −0.25, scale 0-4",−1.13
same,mean change in daytime tiredness score (0-4),"PEDFIC 1, odevixibat overall, baseline to weeks 21 to 24, placebo −0.49",−0.99
same,mean change from baseline in percentage of days needing help falling asleep,"PEDFIC 1, odevixibat overall, weeks 21 to 24, placebo −3%",−43%
same,mean change from baseline in percentage of days sleeping with the caregiver,"PEDFIC 1, odevixibat overall, weeks 21 to 24, placebo −6%",−42%
same,mean change from baseline in percentage of days with soothing,"PEDFIC 1, odevixibat overall, weeks 21 to 24, placebo −8%",−44%
same,mean (SE) change from baseline to week 24 in weight Z-score,"PEDFIC 1, patients treated with odevixibat, placebo 0.1 (0.1)",0.2 (0.1)
same,mean (SE) change from baseline to week 24 in height Z-score,"PEDFIC 1, patients treated with odevixibat, placebo −0.2 (0.1)",0.0 (0.1)
same,proportion of patients who met serum bile acid response criteria,"PEDFIC 1, patients with PFIC1, week 24",17%
same,proportion of patients who met serum bile acid response criteria,"PEDFIC 1, patients with PFIC2, week 24",40%
